Values quoted from earlier work, collected in US20250381202A1, “PRODRUG KIT FOR MULTI-PRONGED CHEMOTHERAPY” (priority 2022, published 2025).
Like-named read-outs stand apart in the source and are kept apart here.

Details: in vivo tumor model, area under the curve until the drug concentration reaches zero

Compound: COc1cccc2c1C(=O)c1c(O)c3c(c(O)c1C2=O)C[C@@](O)(C(=O)CO)C[C@@H]3O[C@H]1C[C@H](N)[C@H](O)[C@H](C)O1 [doxorubicin, Doxorubicin]
- AUC0-t (In blood): 80.9 µg·min/mL
- AUC0-t (Tumor Mean PK): 33.4 µg·min/mL
